Like-named read-outs stand apart in the source and are kept apart here.
Target: 11β-HSD1 (Homo sapiens (Human), UniProt P28845)
Test: Biological Test Example 1: inhibition of a microsomal preparation of 11β-HSD1 (SPA)
Type: biochemical
Conditions: Biological Test Example 1; for Average % inhibition at 100 nM: 100 nM compound
Method: All reactions were carried out at rt in 96 well clear flexible PET Microbeta plates (PerkinElmer). […] After a 10 minute pre-incubation, 50 μL of enzyme solution containing microsomes isolated from CHO cells overexpressing human 11-HSD1 (10-20 μg/ml of total protein) was added, and the plates were incubated for 90 minutes at rt. The reaction was stopped by adding 50 μl of the SPA beads suspension containing 10 μM […], 5 mg/ml protein A coated YSi SPA beads (GE Healthcare) and 3.3 μg/ml of anti-cortisol antibody (East Coast Biologics) in Superblock buffer (Bio-Rad). The plates were shaken for 120 minutes at rt, and the SPA signal corresponding to [^3H]cortisol was measured on a Microbeta plate reader.

[1] = microsomes from CHO cells overexpressing human 11β-HSD1, read-out: IC50 Range

11β-HSD1, sequence (P28845 whole entry): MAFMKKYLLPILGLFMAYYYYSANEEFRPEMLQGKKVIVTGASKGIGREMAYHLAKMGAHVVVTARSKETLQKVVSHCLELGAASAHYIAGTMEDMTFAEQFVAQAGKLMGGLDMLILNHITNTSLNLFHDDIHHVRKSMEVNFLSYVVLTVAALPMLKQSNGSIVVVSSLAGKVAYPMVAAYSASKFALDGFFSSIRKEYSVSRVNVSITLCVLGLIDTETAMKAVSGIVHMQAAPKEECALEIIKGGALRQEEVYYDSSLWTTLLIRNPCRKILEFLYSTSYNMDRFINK

| SMILES | Average % inhibition at 100 nM [%] | IC50 [1] [µM] | IC50 (read-out: IC50) [µM] |
| --- | --- | --- | --- |
| NC(=O)[C@]12CC3CC(C1)[C@@H](OC(=O)N1CC[C@@H](Oc4ncc(F)cc4F)C1)C(C3)C2 (relative stereo) [EXAMPLE 1, (R)-(trans-(1-carbamoyl-4-adamantyl)) 3-(3,5-difluoropyridin-2-yloxy)pyrrolidine-1-carboxylate] | 95.53 | < 0.1 | 0.00154 |
| O=C(OC1C2CC3CC1CC(O)(C3)C2)N1CCC(c2ncc(Cl)cn2)C1 (single isomer, unassigned) [EXAMPLE 24 Isomer 1, trans-1-hydroxy-4-adamantyl 3-(5-chloropyrimidin-2-yl)pyrrolidine-1-carboxylate] | 98.6 |  |  |
| O=C(OC1C2CC3CC1CC(O)(C3)C2)N1CCC(c2ncc(Cl)cn2)C1 (single isomer, unassigned) [EXAMPLE 24 Isomer 2, cis-1-hydroxy-4-adamantyl 3-(5-chloropyrimidin-2-yl)pyrrolidine-1-carboxylate] | 34.7 |  |  |
| NC(=O)[C@]12CC3CC(C1)[C@@H](OC(=O)N1CCC(c4ncc(Cl)cn4)C1)C(C3)C2 (single isomer, unassigned) [EXAMPLE 26 Isomer 1a, (1-carbamoyl-4-adamantyl) 3-(5-chloropyrimidin-2-yl)pyrrolidine-1-carboxylate] | 102.6 | < 0.1 | 0.00115 |
| NC(=O)[C@]12CC3CC(C1)[C@@H](OC(=O)N1CCC(c4ncc(Cl)cn4)C1)C(C3)C2 (single isomer, unassigned) [EXAMPLE 26 Isomer 1b, (1-carbamoyl-4-adamantyl) 3-(5-chloropyrimidin-2-yl)pyrrolidine-1-carboxylate] | 84.2 | < 0.1 | 0.00191 |
| NC(=O)[C@]12CC3CC(C1)[C@@H](OC(=O)N1CCC(c4ncc(Cl)cn4)C1)C(C3)C2 (single isomer, unassigned) [EXAMPLE 26 Isomer 2, cis-(1-carbamoyl-4-adamantyl) 3-(5-chloropyrimidin-2-yl)pyrrolidine-1-carboxylate] | 26.3 | > 0.1 | > 0.1 |
| NC(=O)[C@]12CC3CC(C1)[C@@H](OC(=O)N1CCC(c4ncc(Cl)cn4)C1)C(C3)C2 (single isomer, unassigned) [EXAMPLE 26, trans-(1-carbamoyl-4-adamantyl) 3-(5-chloropyrimidin-2-yl)pyrrolidine-1-carboxylate] | 94.5 | < 0.1 | 0.00112 |
| Cc1ccc(C2CCN(C(=O)OC3C4CC5CC3CC(C(N)=O)(C5)C4)C2)nc1 (single isomer, unassigned) [EXAMPLE 35 Isomer 1, trans-1-carbamoyl-4-adamantyl 3-(5-methylpyridin-2-yl)pyrrolidine-1-carboxylate] | 91.6 | < 0.1 | 0.00161 |
| Cc1ccc(C2CCN(C(=O)OC3C4CC5CC3CC(C(N)=O)(C5)C4)C2)nc1 (single isomer, unassigned) [EXAMPLE 35 Isomer 2, cis-1-carbamoyl-4-adamantyl 3-(5-methylpyridin-2-yl)pyrrolidine-1-carboxylate] | 8.1 | > 0.1 | > 0.1 |
| Cc1ncc(C2CCN(C(=O)OC3C4CC5CC3CC(C(N)=O)(C5)C4)C2)cn1 (single isomer, unassigned) [EXAMPLE 36 Isomer 1, 1-carbamoyl-4-adamantyl 3-(2-methylpyrimidin-5-yl)pyrrolidine-1-carboxylate] | 59.1 | < 0.1 | 0.0837 |
| Cc1ncc(C2CCN(C(=O)OC3C4CC5CC3CC(C(N)=O)(C5)C4)C2)cn1 (single isomer, unassigned) [EXAMPLE 36 Isomer 2, 1-carbamoyl-4-adamantyl 3-(2-methylpyrimidin-5-yl)pyrrolidine-1-carboxylate] | 1.5 | > 0.1 | > 0.1 |

Source: patent US9163012B2, “Carbamate and urea inhibitors of 11β-hydroxysteroid dehydrogenase 1” (Vitae Pharmaceuticals, Inc., priority 2009, dated 2015)
